The record followed here is patent US20250388565A1, “ESTROGEN RECEPTOR ALPHA DEGRADERS AND METHODS OF USE THEREOF” (Relay Therapeutics, Inc., priority 2022, published 2025).

Usually DC50 stands for the concentration giving 50% degradation.

The target in the test is T1, ERα protein (HiBiT-tagged) in ESR1_HiBiT KI MCF7 cells (Homo sapiens, UniProt P03372).
T1 sequence (P03372 1-595): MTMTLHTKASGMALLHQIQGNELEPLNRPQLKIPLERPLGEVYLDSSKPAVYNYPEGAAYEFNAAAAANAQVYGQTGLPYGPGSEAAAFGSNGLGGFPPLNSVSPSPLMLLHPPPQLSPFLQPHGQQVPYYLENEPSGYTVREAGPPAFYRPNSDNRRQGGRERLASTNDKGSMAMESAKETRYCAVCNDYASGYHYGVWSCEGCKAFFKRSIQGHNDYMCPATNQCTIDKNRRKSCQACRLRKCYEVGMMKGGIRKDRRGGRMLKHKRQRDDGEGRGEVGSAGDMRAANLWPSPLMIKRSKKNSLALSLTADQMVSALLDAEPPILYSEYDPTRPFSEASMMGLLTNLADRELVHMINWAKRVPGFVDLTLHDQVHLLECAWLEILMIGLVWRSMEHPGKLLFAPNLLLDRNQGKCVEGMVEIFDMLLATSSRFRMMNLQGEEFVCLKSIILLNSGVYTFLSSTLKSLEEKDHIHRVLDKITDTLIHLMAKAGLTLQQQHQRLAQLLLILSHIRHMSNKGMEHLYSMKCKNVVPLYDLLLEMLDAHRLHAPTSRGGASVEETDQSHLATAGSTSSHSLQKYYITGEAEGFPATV
In words: Nano Glo HiBiT Lytic Degradation Assay. The test is classed as cell-based. The settings on record: 6 hours with compound, 14-point dose response 1:3, bell-shape curve fit, half-maximal effect of first Hill model, read-out: MCF7 ESR1 HiBiT - (DC50). Summed up: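 ESR1_HiBiT knock-in MCF7 cells were seeded 24 h before treatment, then exposed to compounds for 6 h at 37° C (14-point 1:3 curves, 10 mM top stock, 0.1% DMSO final, duplicates). HiBiT-ERα was read by lytic LgBiT luminescence, background-subtracted and normalized to DMSO. DC50 was taken from the half-maximal point of the first Hill component of a bell-shaped fit.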
In general terms: HiBiT is a short tag that completes a luciferase, so light tracks the accessible tagged protein.
For the compound `O=C1CC[C@H](N2Cc3cc(N4CCN(CC5CCN(c6ccc([C@@H]7c8ccc(O)cc8C(F)(F)C[C@@H]7c7ccc(F)cc7F)cc6)CC5)CC4)ccc3C2=O)C(=O)N1` [Compound I-318, (S)-3-(5-(4-((1-(4-((1R,2S)-2-(2,4-difluorophenyl)-4,4-difluoro-6-hydroxy-1,2,3,4-tetrahydronaphthalen-1-yl)phenyl)piperidin-4-yl)methyl)piperazin-1-yl)-1-oxoisoindolin-2-yl)piperidine-2,6-dione], the half-maximal degradation concentration (DC50) worked out at 0.33 nM.
Next, `O=C1CC[C@H](N2Cc3cc(N4CCN(CC5CCN(c6ccc([C@@H]7c8ccc(O)cc8CC[C@@H]7c7cccc(F)c7)cc6)CC5)CC4)ccc3C2=O)C(=O)N1` (single isomer, unassigned) [II-26]: at least 10000 nM; `C[C@@H]1C[C@H](CN2CCN(c3ccc4c(c3)CN(C3CCC(=O)NC3=O)C4=O)CC2)CCN1c1ccc([C@@H]2c3ccc(O)cc3CC[C@@H]2c2ccccc2)cc1` (single isomer, unassigned) [II-48]: 1 nM; `O=C1CCN(c2ccc(N3CC[C@@]4(CCN(CC5CCN(c6ccc([C@@H]7c8ccc(O)cc8CC[C@@H]7c7ccccc7)cc6)CC5)C4)C3)cc2)C(=O)N1` (single isomer, unassigned) [Compound I-288]: at least 10000 nM.
Next, `O=C1CC[C@H](N2Cc3cc(N4CCN(CC5CCN(c6ccc(C7=C(c8ccccc8)CCc8cc(C(=O)O)ccc87)cc6)CC5)CC4)ccc3C2=O)C(=O)N1` [Compound I-7, (S)-5-(4-(4-((4-(2-(2,6-dioxopiperidin-3-yl)-1-oxoisoindolin-S-yl)piperazin-1-yl)methyl)piperidin-1-yl)phenyl)-6-phenyl-7,8-dihydronaphthalene-2-carboxylic acid]: at least 10000 nM; `CC1(C)CCC([C@H]2CCc3cc(O)ccc3[C@H]2c2ccc(N3CCC(CN4CCN(c5ccc6c(c5)CN([C@H]5CCC(=O)NC5=O)C6=O)CC4)CC3)cc2)CC1` (single isomer, unassigned) [Compound I-105]: 45.8 nM.
As to `C[C@H]1C[C@H](c2ccccc2)[C@H](c2ccc(N3CCC(CN4CCN(c5ccc6c(c5)CN([C@H]5CCC(=O)NC5=O)C6=O)CC4)CC3)cc2)c2ccc(O)cc21` (single isomer, unassigned) [Compound I-420], the DC50 is 2 nM.
Next, `C[C@@H]1OC2(CCCCC2)[C@H](c2ccc(N3CCC(CN4CCN(c5ccc6c(c5)CN([C@H]5CCC(=O)NC5=O)C6=O)CC4)CC3)cc2)c2ccc(O)cc21` [Compound I-83, (S)-3-(5-(4-((1-(4-((1′S,4′R)-7′-hydroxy-1′-methylspiro[cyclohexane-1,3′-isochroman]-4′-yl)phenyl)piperidin-4-yl)methyl)piperazin-1-yl)-1-oxoisoindolin-2-yl)piperidine-2,6-dione]: 1 nM.
Next, `O=C1CC[C@H](N2Cc3cc(N4CCN(CC5CCN(c6ccc([C@H]7c8ccc(O)cc8C(F)(F)C[C@H]7c7ccccc7)cc6F)CC5)CC4)ccc3C2=O)C(=O)N1` [Compound I-328, (S)-3-(5-(4-((1-(4-((1S,2R)-4,4-difluoro-6-hydroxy-2-phenyl-1,2,3,4-tetrahydronaphthalen-1-yl)-2-fluorophenyl)piperidin-4-yl)methyl)piperazin-1-yl)-1-oxoisoindolin-2-yl)piperidine-2,6-dione]: 9 nM.
Next, `Cn1nc(C2CCC(=O)NC2=O)c2ccc(N3CCN(CC4CCN(c5ccc([C@@H]6c7ccc(O)cc7C(F)(F)C[C@@H]6c6ccccc6)cc5)CC4)CC3)cc21` (single isomer, unassigned) [Compound I-297]: 0.74 nM.
Regarding `O=C1CC[C@H](N2Cc3cc(N4CCN(CC5CCN(c6ccc([C@H]7c8ccc(O)cc8CC[C@H]7C7CCOCC7)cc6)CC5)CC4)ccc3C2=O)C(=O)N1` [Compound I-33, (3S)-3-[5-[4-[[1-[4-[(1S,2S)-6-hydroxy-2-tetrahydropyran-4-yl-tetralin-1-yl]phenyl]-4-piperidyl]methyl]piperazin-1-yl]-1-oxo-isoindolin-2-yl]piperidine-2,6-dione], the DC50 was determined as 173 nM.
In the case of `Cn1c(=O)n([C@H]2CCC(=O)NC2=O)c2ccc(N3CCN(CC4CCN(c5ccc([C@@H]6c7ccc(O)cc7CO[C@@H]6c6ccccc6)cc5)CC4)CC3)cc21` (single isomer, unassigned) [Compound I-387], the half-maximal degradation concentration (DC50) was found to be 0.16 nM.
On to `CN(CC1CCN(c2ccc([C@@H]3c4ccc(O)cc4CC[C@@H]3c3ccccc3)cc2)CC1)C1CN(c2ccc3c(c2)CN(C2CCC(=O)NC2=O)C3=O)C1` (single isomer, unassigned) [II-9], for which the DC50 stood at 21 nM.
Next, `O=C1CC[C@H](N2Cc3cc(N4CCN(CC5CCN(c6ccc([C@@H]7c8ccc(O)cc8CC[C@@H]7c7ccncc7)cc6)CC5)CC4)ccc3C2=O)C(=O)N1` [Compound I-132, (S)-3-(5-(4-((1-(4-((1R,2S)-6-hydroxy-2-(pyridin-4-yl)-1,2,3,4-tetrahydronaphthalen-1-yl)phenyl)piperidin-4-yl)methyl)piperazin-1-yl)-1-oxoisoindolin-2-yl)piperidine-2,6-dione]: 0.0491 nM; `O=C1CC[C@H](N2Cc3cc(N4CCN(CC5CCN(c6ccc([C@@H]7c8ccc(C(=O)O)cc8CC[C@@H]7c7ccccc7)cc6)CC5)CC4)ccc3C2=O)C(=O)N1` (single isomer, unassigned) [Compound I-2]: at least 10000 nM; `O=C1CC[C@H](N2Cc3cc(N4CCN(C5CCN(c6ccc([C@H]7c8ccc(O)cc8CC[C@H]7c7ccccc7)cc6)CC5)CC4)ccc3C2=O)C(=O)N1` [II-30]: 100 nM.
As for `O=C1CC[C@H](N2Cc3cc(N4CCN(CC5CCN(c6ccc([C@@H]7c8ccc(O)cc8CC[C@@H]7C7CCCCC7)cc6F)CC5)CC4)ccc3C2=O)C(=O)N1` [Compound I-162, (S)-3-(5-(4-((1-(4-((1R,2R)-2-cyclohexyl-6-hydroxy-1,2,3,4-tetrahydronaphthalen-1-yl)-2-fluorophenyl)piperidin-4-yl)methyl)piperazin-1-yl)-1-oxoisoindolin-2-yl)piperidine-2,6-dione], the DC50 amounted to 3 nM.
Next, `O=C1CC[C@H](N2Cc3cc(N4CCN(CC5CCN(c6ccc([C@H]7c8ccc(O)cc8CC[C@H]7c7cccc(O)c7)cc6)CC5)CC4)ccc3C2=O)C(=O)N1` [Compound I-127, (3S)-3-[5-[4-[[1-[4-[(1S,2R)-6-hydroxy-2-(3-hydroxyphenyl)tetralin-1-yl]phenyl]-4-piperidyl]methyl]piperazin-1-yl]-1-oxo-isoindolin-2-yl]piperidine-2,6-dione]: at least 10000 nM; `O=C1CCC(N2Cc3c(ccc(N4CCN(CC5CCN(c6ccc([C@@H]7c8ccc(O)cc8CC[C@@H]7c7ccccc7)cc6)CC5)CC4)c3F)C2=O)C(=O)N1` (single isomer, unassigned) [II-16]: 2 nM; `Cn1c(=O)n([C@@H]2CCC(=O)NC2=O)c2ccc(N3CCN(CC4CCN(c5ccc([C@@H]6c7ccc(O)cc7CC[C@@H]6c6ccccc6)cc5)CC4)CC3)cc21` (single isomer, unassigned) [Compound I-276]: 0.5 nM.
Next, `CC(C)[C@H]1CC(F)(F)c2cc(O)ccc2[C@H]1c1ccc(N2CCC(CN3CCN(c4ccc5c(c4)CN([C@H]4CCC(=O)NC4=O)C5=O)CC3)CC2)cc1` [Compound I-156, (S)-3-(5-(4-((1-(4-((1R,2R)-4,4-difluoro-6-hydroxy-2-isopropyl-1,2,3,4-tetrahydronaphthalen-1-yl)phenyl)piperidin-4-yl)methyl)piperazin-1-yl)-1-oxoisoindolin-2-yl)piperidine-2,6-dione]: 0.4 nM.
Next, `O=C1CC[C@H](N2Cc3cc(N4CCN(CC5CCN(c6ccc([C@H]7c8ccc(O)cc8CC[C@H]7C7CCCCC7)c(F)c6)CC5)CC4)ccc3C2=O)C(=O)N1` [Compound I-136, (S)-3-(5-(4-((1-(4-((1R,2S)-2-cyclohexyl-6-hydroxy-1,2,3,4-tetrahydronaphthalen-1-yl)-3-fluorophenyl)piperidin-4-yl)methyl)piperazin-1-yl)-1-oxoisoindolin-2-yl)piperidine-2,6-dione]: at least 10000 nM; `COc1cc(N2CCC(CN3CCN(c4ccc5c(c4)CN([C@H]4CCC(=O)NC4=O)C5=O)CC3)CC2)ccc1[C@H]1c2ccc(O)cc2CC[C@H]1C1CCCCC1` [Compound I-151, (S)-3-(5-(4-((1-(4-((1R,2S)-2-cyclohexyl-6-hydroxy-1,2,3,4-tetrahydronaphthalen-1-yl)-3-methoxyphenyl)piperidin-4-yl)methyl)piperazin-1-yl)-1-oxoisoindolin-2-yl)piperidine-2,6-dione]: 11 nM; `C[C@@]1(c2ccccc2)CCc2cc(O)ccc2[C@@H]1c1ccc(N2CCC(CN3CCN(c4ccc5c(c4)CN([C@H]4CCC(=O)NC4=O)C5=O)CC3)CC2)cc1` [Compound I-148, (S)-3-(5-(4-((1-(4-((1R,2R)-6-hydroxy-2-methyl-2-phenyl-1,2,3,4-tetrahydronaphthalen-1-yl)phenyl)piperidin-4-yl)methyl)piperazin-1-yl)-1-oxoisoindolin-2-yl)piperidine-2,6-dione]: 424 nM.
